pEC50: −log10 of the molar value.
Legend:
[1] = tested on: Cdc2 (Cdk1) tyrosine 15-phosphorylation; assay: Cdc2 (Cdk1) tyrosine 15-phosphorylation-inhibitory effect in WiDr cells + gemcitabine (ELISA); assay type: cell-based; settings: Homo sapiens, gemcitabine 100 nM for 24 hours, then test compound with nocodazole for 8 hours, read-out: Cdc2-Y15 Phosphorylation-Inhibitory Effect (WiDr, + gemcitabine) (EC50)
Description: Pharmaceutical Text 2 (Method of Determining Drug Potency in Cells (Cdc2 (Cdk1) Tyrosine 15-Phosphorylation-Inhibitory Effect))
Fetal bovine serum (FBS) was obtained from Morgate; media RPMI1640 and DMEM were from Invitrogen; camptothecin was from Sigma; gemcitabine was from Nippon Eli Lilly; nocodazole and protease inhibitor cocktail were from Sigma; rabbit anti-Cdc2 antibody and mouse anti-Cdc2 antibody were from Santa Cruz Biotechnology; rabbit anti-tyrosine 15-phosphorylated Cdc2 antibody and horseradish peroxidase-labeled anti-mouse IgG antibody were from Cell Signaling Technology; sure blue reserve TMB peroxidase substrate was from Kirkegaard and Perry Laboratories. […]
In the method of using WiDr cells, the cells were suspended in DMEM containing 10% FBS, and the cell suspension was applied to a 96-well Nunclondelta-processed plastic plate in an amount of 2000 cells/100 μL/well, in which the cells were incubated overnight in 5% CO2-95% air at 37° C. […] Cdc2 was determined through ELISA as follows: A rabbit anti-Cdc2 antibody solution, which had been diluted 200-fold with 50 mM carbonate-bicarbonate buffer (pH 9.6), was applied to a 96-well maxisorp plastic plate in an amount of 50 μL/well, and statically kept overnight at 4° C. so as to fix the antibody on the plate. […]

[2] = tested on: Human colon cancer cells (WiDr); assay: Checkpoint escape effect in WiDr cells + gemcitabine (phosphorylated histone H3-positive cells); assay type: cell-based; settings: gemcitabine 100 nM for 24 hours, then test compound with nocodazole for 8 hours
Description: Pharmaceutical Text 3 (Method of Determining Drug Potency in Cells (Checkpoint-Removing Effect))
Fetal bovine serum (FBS) was obtained from Morgate; DMEM was from Invitrogen; gemcitabine was from Nippon Eli Lilly; nocodazole and 4′,6-diamidino-2-phenylindole were from Sigma; rabbit anti-phosphorylated histone H3 antibody was from Upstate; and fluorescence-labeled (Alexa Fluor 488) anti-rabbit IgG antibody was from Molecular Probe.
Human colon cancer cells (WiDr) were obtained from American Type Culture Collection (ATCC).
The cells were suspended in DMEM containing 10% FBS, and the cell suspension was applied to a poly-D-lysine-coated 96-well plastic plate (bought from Becton Dickinson) in an amount of 2000 cells/100 μL/well, in which the cells were incubated overnight in 5% CO2-95% air at 37° C. […] Next, this was washed with PBS, and a solution containing 4′,6-diamidino-2-phenylindole that had been diluted with 1% BSA/PBS to have a concentration 10 μg/mL and a fluorescence-labeled (Alexa Fluor 488) anti-rabbit IgG antibody that had been diluted 250-fold was added to it in an amount 50 μL/well, and reacted in a dark place at room temperature for 60 minutes. Finally, this was washed with PBS, and its fluorescence intensity was determined to calculate the ratio of the phosphorylated histone H3-positive cells (cells that had been in a cell division cycle through removal of checkpoint). […]

pEC50 [1]: 6.92 | pEC50 [2]: 6.68
Structure (SMILES): C=CCn1c(=O)c2cnc(Nc3ccc(N4CCN(C)CC4)cc3)nc2n1-c1cccc(C(C)(C)O)n1 [Example 53, 2-allyl-1-[6-(1-hydroxy-1-methylethyl)pyridin-2-yl]-6-{[4-(4-methylpiperazin-1-yl)phenyl]amino}-1,2-dihydro-3H-pyrazolo[3,4-d]pyrimidin-3-one]

Reference: US7834019B2, “Substituted pyrazolo[3,4-d]pyrimidinone derivatives” (Banyu Pharmaceutical Co., Ltd., priority 2006, dated 2010)
